Source: patent US7112562B2 (Diatos, S.A., priority 2001, dated 2006)

System: Caco-2 cell monolayers
Test: Trans-epithelial transport of D-[14C]-mannitol and L-[3H]-proline in presence of DPV
Assay type: cell-based
Settings: 30 μg/ml
Experimental: Trans-epithelial transport experiments were carried out.

Question: “SSRRARRSPRHLGSG (listed as Homo sapiens) [DPV10]” was tested. Which “effect on amounts of D-[14C]-mannitol and L-[3H]-proline associated with the cells at the end of the experiment” value (Caco-2, 8 hours, FIG. 4) did it give?
Answer: The value was “did not affect”.

Question: And the “effect on transport of D-[14C]-mannitol or L-[3H]-proline” value (Caco-2, FIG. 3)?
Answer: The value was “did not affect”.
